According to ChEMBL document CHEMBL1145629, “Design of (N)-methanocarba adenosine 5'-uronamides as species-independent A3 receptor-selective agonists” (Bioorg Med Chem Lett, 2008):

What was measured:
[1] = target: T1, Adenosine receptor A1 (Mus musculus, UniProt Q60612); experiment: Displacement of [125I]N6-(4-amino-3-iodobenzyl)adenosine-5'-N-methyl-uronamide from mouse recombinant adenosine A1 receptor expressed in HEK293 cells; type: cell-based
T1 sequence (Q60612 whole entry): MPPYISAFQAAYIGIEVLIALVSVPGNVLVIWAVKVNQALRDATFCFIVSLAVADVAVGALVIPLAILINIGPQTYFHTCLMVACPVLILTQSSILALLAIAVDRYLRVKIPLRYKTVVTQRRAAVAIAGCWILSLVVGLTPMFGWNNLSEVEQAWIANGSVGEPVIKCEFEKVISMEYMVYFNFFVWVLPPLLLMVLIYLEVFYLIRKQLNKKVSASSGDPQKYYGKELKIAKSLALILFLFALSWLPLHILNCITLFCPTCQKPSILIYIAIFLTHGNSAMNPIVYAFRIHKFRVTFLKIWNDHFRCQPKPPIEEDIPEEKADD

[2] = target: T2, Adenosine receptor A2a (Homo sapiens, UniProt P29274); experiment: Displacement of radioligand from human adenosine A2A receptor expressed in HEK293 cells; type: cell-based
T2 sequence (P29274 whole entry): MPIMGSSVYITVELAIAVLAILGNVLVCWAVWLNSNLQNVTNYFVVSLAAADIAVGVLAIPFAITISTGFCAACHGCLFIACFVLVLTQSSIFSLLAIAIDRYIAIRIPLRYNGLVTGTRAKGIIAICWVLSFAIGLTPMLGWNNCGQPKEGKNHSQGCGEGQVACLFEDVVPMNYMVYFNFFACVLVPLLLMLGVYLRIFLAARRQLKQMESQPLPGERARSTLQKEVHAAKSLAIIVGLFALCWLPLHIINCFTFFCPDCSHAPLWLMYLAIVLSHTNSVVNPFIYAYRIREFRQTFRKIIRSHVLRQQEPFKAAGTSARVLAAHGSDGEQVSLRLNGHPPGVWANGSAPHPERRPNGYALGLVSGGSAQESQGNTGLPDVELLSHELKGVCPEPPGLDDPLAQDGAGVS

[3] = target: Adenosine receptors; A1 & A3 (Homo sapiens) (UniProt P30542+P0DMS8); experiment: Selectivity for human adenosine A3 receptor over human adenosine A1 receptor
[4] = target: Adenosine receptor A2a (Mus musculus) (UniProt Q60613); experiment: Displacement of [3H]2-[p-(2-carboxyethyl)phenyl-ethylamino]-5'-N-ethylcarbox-amidoadenosine from mouse recombinant adenosine A2A receptor expressed in HEK293 at 100 uM; type: cell-based
Adenosine receptor A2a (Mus musculus), sequence (Q60613 whole entry): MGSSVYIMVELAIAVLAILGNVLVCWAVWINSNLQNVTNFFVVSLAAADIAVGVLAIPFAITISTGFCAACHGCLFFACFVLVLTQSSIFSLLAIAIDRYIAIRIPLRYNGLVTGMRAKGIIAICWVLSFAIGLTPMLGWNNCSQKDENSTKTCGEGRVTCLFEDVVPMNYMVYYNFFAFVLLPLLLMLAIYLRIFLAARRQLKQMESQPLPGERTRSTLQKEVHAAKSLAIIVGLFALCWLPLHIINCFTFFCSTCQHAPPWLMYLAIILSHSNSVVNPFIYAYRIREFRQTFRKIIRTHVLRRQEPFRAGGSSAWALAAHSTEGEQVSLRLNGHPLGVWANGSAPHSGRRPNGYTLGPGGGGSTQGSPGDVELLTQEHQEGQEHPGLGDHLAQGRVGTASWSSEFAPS

[5] = species: Mus musculus; experiment: Selectivity for mouse adenosine A3 receptor over mouse adenosine A1 receptor
[6] = target: T3, Adenosine receptor A3 (Mus musculus, UniProt Q61618); experiment: Displacement of [125I]N6-(-amino-3-iodobenzyl)adenosine-5'-N-methyl-uronamide from mouse recombinant adenosine A3 receptor expressed in HEK293 cells; type: cell-based
T3 sequence (Q61618 whole entry): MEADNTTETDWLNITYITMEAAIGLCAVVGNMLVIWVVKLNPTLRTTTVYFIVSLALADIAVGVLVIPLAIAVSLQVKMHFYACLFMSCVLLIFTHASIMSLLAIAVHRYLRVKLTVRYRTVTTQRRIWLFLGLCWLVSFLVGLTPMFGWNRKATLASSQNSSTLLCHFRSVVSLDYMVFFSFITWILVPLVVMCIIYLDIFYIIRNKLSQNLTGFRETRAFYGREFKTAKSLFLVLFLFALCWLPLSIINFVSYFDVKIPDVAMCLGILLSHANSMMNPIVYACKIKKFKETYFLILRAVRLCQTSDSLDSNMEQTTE

[7] = target: Adenosine receptor A2a (Mus musculus, UniProt Q60613); experiment: Displacement of [3H]2-[p-(2-carboxyethyl)phenyl-ethylamino]-5'-N-ethylcarboxamidoadenosine from mouse recombinant adenosine A2A receptor expressed in HEK293 cells; type: cell-based
Adenosine receptor A2a (Mus musculus, UniProt Q60613), sequence (Q60613 whole entry): as the sequence (Q60613 whole entry) above

[8] = target: T4, Adenosine receptor A2b (Homo sapiens, UniProt P29275); experiment: Activation of human adenosine A2B receptor
T4 sequence (P29275 whole entry): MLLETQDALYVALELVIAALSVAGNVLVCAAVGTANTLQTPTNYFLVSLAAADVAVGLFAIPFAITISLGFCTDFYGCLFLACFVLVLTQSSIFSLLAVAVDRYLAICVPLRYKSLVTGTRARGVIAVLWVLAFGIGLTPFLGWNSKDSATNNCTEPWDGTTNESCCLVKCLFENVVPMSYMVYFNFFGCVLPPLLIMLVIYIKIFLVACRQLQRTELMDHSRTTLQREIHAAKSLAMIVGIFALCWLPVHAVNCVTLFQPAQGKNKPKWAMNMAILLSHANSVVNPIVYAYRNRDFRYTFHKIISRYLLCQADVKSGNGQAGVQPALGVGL

[9] = target: T2, Adenosine receptor A2a; experiment: Displacement of radioligand from human A2A adenosine receptor expressed in HEK293 cells at 10 uM; type: cell-based
[10] = target: T5, Adenosine receptor A3 (Homo sapiens, UniProt P0DMS8); experiment: Displacement of radioligand from human adenosine A3 receptor expressed in CHO cells; type: cell-based
T5 sequence (P0DMS8 whole entry): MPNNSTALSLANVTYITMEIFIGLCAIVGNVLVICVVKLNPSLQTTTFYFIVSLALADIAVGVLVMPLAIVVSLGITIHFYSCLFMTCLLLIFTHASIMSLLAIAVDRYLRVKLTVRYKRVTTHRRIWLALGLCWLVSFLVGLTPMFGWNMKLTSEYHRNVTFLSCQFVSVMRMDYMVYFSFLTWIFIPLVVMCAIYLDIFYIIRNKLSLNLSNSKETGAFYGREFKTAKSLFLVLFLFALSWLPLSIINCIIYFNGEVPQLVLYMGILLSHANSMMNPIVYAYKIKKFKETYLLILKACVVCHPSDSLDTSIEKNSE

[11] = target: T6, Adenosine receptor A1 (Homo sapiens, UniProt P30542); experiment: Displacement of radioligand from human adenosine A1 receptor expressed in CHO cells; type: cell-based
T6 sequence (P30542 whole entry): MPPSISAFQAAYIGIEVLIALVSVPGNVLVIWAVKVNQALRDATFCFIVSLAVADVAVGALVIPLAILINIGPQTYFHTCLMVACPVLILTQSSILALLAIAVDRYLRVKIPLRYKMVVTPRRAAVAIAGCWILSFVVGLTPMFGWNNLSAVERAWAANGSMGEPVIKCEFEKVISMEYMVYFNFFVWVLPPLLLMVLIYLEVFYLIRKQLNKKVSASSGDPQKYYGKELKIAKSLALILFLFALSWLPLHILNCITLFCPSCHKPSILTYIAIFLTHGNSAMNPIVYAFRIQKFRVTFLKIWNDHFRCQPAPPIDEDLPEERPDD

[12] = target: Adenosine receptor A2a (Rattus norvegicus, UniProt P30543); experiment: Displacement of radioligand from rat adenosine A2A receptor
Adenosine receptor A2a (Rattus norvegicus, UniProt P30543), sequence (P30543 whole entry): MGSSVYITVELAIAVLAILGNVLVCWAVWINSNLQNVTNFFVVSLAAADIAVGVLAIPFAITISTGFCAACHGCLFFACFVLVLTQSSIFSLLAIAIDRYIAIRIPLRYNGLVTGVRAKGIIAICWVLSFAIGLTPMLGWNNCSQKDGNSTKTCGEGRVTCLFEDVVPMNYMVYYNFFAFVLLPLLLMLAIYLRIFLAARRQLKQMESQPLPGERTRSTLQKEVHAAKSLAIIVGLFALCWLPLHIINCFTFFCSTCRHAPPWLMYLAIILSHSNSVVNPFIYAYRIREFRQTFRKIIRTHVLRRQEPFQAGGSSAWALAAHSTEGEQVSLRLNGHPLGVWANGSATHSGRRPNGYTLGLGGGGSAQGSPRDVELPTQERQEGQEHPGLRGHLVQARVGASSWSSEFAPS

[13] = target: T7, Adenosine receptor A2b (Mus musculus, UniProt Q60614); experiment: Activation of mouse adenosine A2B receptor
T7 sequence (Q60614 whole entry): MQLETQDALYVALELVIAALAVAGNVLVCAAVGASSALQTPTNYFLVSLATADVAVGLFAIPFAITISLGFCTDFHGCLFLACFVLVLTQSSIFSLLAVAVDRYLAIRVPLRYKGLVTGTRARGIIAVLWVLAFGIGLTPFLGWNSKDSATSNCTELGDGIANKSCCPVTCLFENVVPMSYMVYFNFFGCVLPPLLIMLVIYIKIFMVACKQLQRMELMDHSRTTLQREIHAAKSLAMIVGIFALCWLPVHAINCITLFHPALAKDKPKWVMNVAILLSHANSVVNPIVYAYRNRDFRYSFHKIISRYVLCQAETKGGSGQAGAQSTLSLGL

| SMILES | Ki [1] | Ratio Ki [3] | inhibition [4] | Ratio Ki [5] | Ki [6] | Ki [7] | inhibition [9] | other results |
| --- | --- | --- | --- | --- | --- | --- | --- | --- |
| CNC(=O)C12C[C@@H]1[C@@H](n1cnc3c(NCc4cccc(Cl)c4)nc(SC)nc31)[C@H](O)[C@@H]2O (single isomer, unassigned) | 98.9 nM | 410 | 32% | 83 | 1.19 nM |  |  | Ki [2]: 10000 nM |
| CNC(=O)C12C[C@@H]1[C@@H](n1cnc3c(NCC(c4ccccc4)c4ccccc4)nc(Cl)nc31)[C@H](O)[C@@H]2O (single isomer, unassigned) | 6.83 nM | 1900 |  | 4.1 | 1.67 nM | 1810 nM |  | EC50 [8]: ≥ 10000 nM |
| CNC(=O)[C@@]12C[C@@H]1[C@@H](n1cnc3c(NCc4cccc(I)c4)nc(Cl)nc31)[C@H](O)[C@@H]2O | 7.32 nM |  |  |  | 0.8 nM | 5350 nM |  | EC50 [8]: ≥ 10000 nM |
| CCCC#Cc1nc(NCc2cccc(Cl)c2)c2ncn([C@H]3[C@H](O)[C@H](O)[C@]4(C(=O)NC)C[C@H]34)c2n1 |  |  | 42% |  |  |  | 80% |  |
| CNC(=O)[C@@]12C[C@@H]1[C@@H](n1cnc3c(NCc4cccc(C#CCCCC(=O)NCCN)c4)nc(Cl)nc31)[C@H](O)[C@@H]2O | 151 nM | 52 | 39% | 13 | 11.9 nM |  | 58% | Ki [10]: 5.21 nM; Ki [11]: 271 nM |
| CNC(=O)C12C[C@@H]1[C@@H](n1cnc3c(NCc4cccc(Cl)c4)nc(I)nc31)[C@H](O)[C@@H]2O (single isomer, unassigned) |  |  | 40% |  |  |  |  | Ki [2]: > 10000 nM |
| CNC(=O)C12C[C@@H]1[C@@H](n1cnc3c(NCc4cccc(C#CCO)c4)nc(Cl)nc31)[C@H](O)[C@@H]2O (single isomer, unassigned) |  |  | 11% |  |  |  | 56% |  |
| CNC(=O)C12C[C@@H]1[C@@H](n1cnc3c(NCc4cc(OC)ccc4OC)nc(Cl)nc31)[C@H](O)[C@@H]2O (single isomer, unassigned) | 29 nM | 1100 |  | 17 | 1.72 nM | 44700 nM |  | EC50 [8]: ≥ 10000 nM; Ki [2]: 10000 nM |
| CNC(=O)[C@@]12C[C@@H]1[C@@H](n1cnc3c(NCc4cc(OC)ccc4OC)nc(I)nc31)[C@H](O)[C@@H]2O |  |  | 14% |  |  |  | 35% |  |
| CNC(=O)[C@@]12C[C@@H]1[C@@H](n1cnc3c(NCc4cccc(Cl)c4)nc(C#C[Si](C)(C)C)nc31)[C@H](O)[C@@H]2O | 159 nM | 160 | 20% | 35.6 | 4.46 nM |  | 52% | Ki [10]: 0.98 nM; Ki [11]: 160 nM |
| CNC(=O)[C@@]12C[C@@H]1[C@@H](n1cnc3c(NC)nc(Cl)nc31)[C@H](O)[C@@H]2O | 55.3 nM |  |  |  | 49 nM |  | 6% | Ki [12]: > 10000 nM |
| CNC(=O)C12C[C@@H]1[C@@H](n1cnc3c(NC4CC4c4ccccc4)nc(Cl)nc31)[C@H](O)[C@@H]2O (single isomer, unassigned) |  |  |  |  |  | 38200 nM |  | EC50 [8]: ≥ 10000 nM |
| CNC(=O)[C@@]12C[C@@H]1[C@@H](n1cnc3c(NOC)nc(Cl)nc31)[C@H](O)[C@@H]2O | 1160 nM | 1.8 | 2% | 1.3 | 877 nM |  | 2% | Ki [10]: 149 nM; Ki [11]: 265 nM |
| CNC(=O)[C@@]12C[C@@H]1[C@@H](n1cnc3c(NCc4cccc(C#CCCCC(=O)NCCNC(C)=O)c4)nc(Cl)nc31)[C@H](O)[C@@H]2O |  |  | 68% |  |  |  | 80% |  |
| CNC(=O)C12C[C@@H]1[C@@H](n1cnc3c(NCc4cccc(Br)c4)nc(Cl)nc31)[C@H](O)[C@@H]2O (single isomer, unassigned) | 8.79 nM | 710 |  | 9.8 | 0.9 nM | 6390 nM |  | EC50 [8]: ≥ 10000 nM |
| CNC(=O)[C@@]12C[C@@H]1[C@@H](n1cnc3c(NCc4cccc(Cl)c4)nc(Cl)nc31)[C@H](O)[C@@H]2O | 15.3 nM |  |  |  | 1.49 nM | 10400 nM |  | EC50 [8]: ≥ 10000 nM |
| CNC(=O)[C@@]12C[C@@H]1[C@@H](n1cnc3c(NCc4cccc(Cl)c4)nc(C#CCCCC(=O)NCCN)nc31)[C@H](O)[C@@H]2O | 546 nM | 209 | 31% | 64 | 8.6 nM |  | 81% | Ki [10]: 2.17 nM; Ki [11]: 454 nM |
| CNC(=O)[C@H]1O[C@@H](n2cnc3c(NCc4cccc(I)c4)nc(Cl)nc32)[C@H](O)[C@@H]1O [NAMODENOSON] | 35 nM |  |  |  |  | 10000 nM |  | EC50 [13]: ≥ 10000 nM |
| CNC(=O)[C@@]12C[C@@H]1[C@@H](n1cnc3c(NCc4cccc(Cl)c4)nc(C#CCCCC(=O)OC)nc31)[C@H](O)[C@@H]2O | 1340 nM |  | 50% |  | 4.65 nM |  | 49% | Ki [11]: 482 nM |
| C#Cc1nc(NCc2cccc(Cl)c2)c2ncn([C@H]3[C@H](O)[C@H](O)[C@]4(C(=O)NC)C[C@H]34)c2n1 |  |  | 41% |  |  |  | 48% |  |
| CNC(=O)[C@@]12C[C@@H]1[C@@H](n1cnc3c(NCc4cccc(C#CCCCC(=O)O)c4)nc(Cl)nc31)[C@H](O)[C@@H]2O |  |  | 5% |  |  |  | 14% |  |
| CNC(=O)[C@@]12C[C@@H]1[C@@H](n1cnc3c(NCc4cccc(Cl)c4)nc(C#CCCCC(=O)O)nc31)[C@H](O)[C@@H]2O |  |  | 8% |  |  |  | 43% |  |
| CNC(=O)[C@H]1O[C@@H](n2cnc3c(NCc4cccc(I)c4)ncnc32)[C@H](O)[C@@H]1O [IB-MECA] | 5.9 nM |  |  |  | 0.087 nM | 1000 nM |  | EC50 [13]: ≥ 10000 nM |
